Key:
Assay type in all cases: cell-based
[1] = tested on: human monocytes (RANTES-induced migration); assay: RANTES-induced monocyte migration (micro-chemotaxis chamber)
Method: (§1) Human embryonic kidney cells 293 (HEK-293) transfected to express human CCR1, CCR3, or CCR5 receptors were cultured in Dulbecco's Modified Eagles Medium (DMEM, Biowhiftaker, Walkersville, Md.) containing 10% Fetal Bovine Serum (FBS, Hyclone, Logan, Utah), 2 mM glutamine and 100 U/ml penicillin and streptomycin (Quality Biologicals, Gaithersburg, Md.). Peripheral blood mononuclear cells were isolated from fresh normal donor apheresis packs by centrifugation over Ficoll. Monocytes were enriched by 85–95% using percoll fractionation (Pharmacia, Piscataway, N.J.).
(§2) Monocyte chemotaxis was performed as previously described [Wang (1993) J. Immunol. 150:3022–3029]. Briefly, monocytes were resuspended in binding media (RPMI-1640 media containing 1% BSA, 25 mM HEPES, pH 8.0) at 1–2×10^6 cells/ml. Chemokines, diluted in binding media, were mixed with cosalane or the indicated cosalane analog and placed in the lower wells of a micro-chemotaxis chamber (Neuro Probe, Cabin John, Md.). Five micrometer polyvinyl-free polycarbonate membranes were placed over the chemokine mixtures. After the micro-chemotaxis chamber was assembled, 50 μl of cells were placed in the upper wells. The filled chemotaxis chambers were incubated in a humidified CO2 incubator for 90 minutes.
(§3) After incubating, the membranes were removed from the chemotaxis chamber assembly followed by gently removing the cells from the upper side of the membrane. Then cells on the lower side of the membrane were stained.
(§4) The number of cells migrating to the chemokine mixtures was determined for binding media alone, and chemokine treated and untreated cells. HEK-293 cells transfected to express human CCR1, CCR3 or CCR5 receptors were resuspended in binding media at 7.5×10^5 cells/ml. Ten μm polyvinyl-free polycarbonate membranes (Neuro Probe) were treated with 47 ug/ml rat tail collagen type 1 (Collaborative Biomedical Products, Bedford, Md.) in RPMI-1640 overnight, dried and placed over the chemoattractants. The assembled chemotaxis chambers were incubated in a humidified CO2 incubator for 5.5–6 hours. After the incubation, the membranes were removed from the chemotaxis chamber assembly followed by gently removing cells from the upper side of the membrane. The stained and dried membrane was mounted and the cells on the underside of the membrane were counted at 200× magnification. The results are reported as the average number of cells per high powered field at a given chemokine concentration±standard deviation.

[2] = tested on: human monocytes (MIP1-α-induced migration); assay: MIP1-α-induced monocyte migration; settings: compound at 1 μM, chemokine at 2.5 ng/ml, data not shown
Method: as §2, with “Chemokines, diluted in binding media, were mixed with cosalane or the indicated cosalane analog and placed in the lower wells of a micro-chemotaxis chamber (Neuro Probe, Cabin John, Md.).” left out
as §3
as §4, with “magnification.” for “magnification. The results are reported as the average number of cells per high powered field at a given chemokine concentration±standard deviation.”
(§5) It is noted that both MIP1-α and MIP1-β are ligands for CCR1, CCR5, and D6 (8).

[3] = tested on: human monocytes (SDF-1α-induced migration; CXCR4 ligand); assay: SDF-1α-induced monocyte/lymphocyte migration; settings: compound at 1 μM, FIG. 1
Method: as §2, §3
The number of cells migrating to the chemokine mixtures was determined for binding media alone, and chemokine treated and untreated cells. […] The stained and dried membrane was mounted and the cells on the underside of the membrane were counted at 200× magnification. […]
The ability of the cosalane analogs 3 and 4 to block SDF-1α (a CXCR4 ligand) and RANTES (a CCR1, CCR3, and CCR5 ligand) induced migration of human monocytes or lymphocytes was initially evaluated. […]

human CCR5 = biological target: T1, human CCR5 (Homo sapiens, UniProt P51681); assay: RANTES-induced CCR5/HEK-293 transfectant migration; settings: compound at 1 μM, FIG. 2
T1 construct: expressed in transfected cells; host or cells: HEK-293
Method: as §1
as §4, with “After the incubation, the membranes were removed from the chemotaxis chamber assembly followed by gently removing cells from the upper side of the membrane.” left out, “The results are reported as the average number of cells per high powered field at a given chemokine concentration±standard deviation.” left out

human CCR1 [4] = biological target: T2, human CCR1 (Homo sapiens, UniProt P32246); assay: MIP1α-induced migration of CCR1 transfectants; settings: compound at 1 μM, data not shown
T2 construct: expressed in transfected cells; host or cells: HEK-293
T2 sequence (P32246 1-355): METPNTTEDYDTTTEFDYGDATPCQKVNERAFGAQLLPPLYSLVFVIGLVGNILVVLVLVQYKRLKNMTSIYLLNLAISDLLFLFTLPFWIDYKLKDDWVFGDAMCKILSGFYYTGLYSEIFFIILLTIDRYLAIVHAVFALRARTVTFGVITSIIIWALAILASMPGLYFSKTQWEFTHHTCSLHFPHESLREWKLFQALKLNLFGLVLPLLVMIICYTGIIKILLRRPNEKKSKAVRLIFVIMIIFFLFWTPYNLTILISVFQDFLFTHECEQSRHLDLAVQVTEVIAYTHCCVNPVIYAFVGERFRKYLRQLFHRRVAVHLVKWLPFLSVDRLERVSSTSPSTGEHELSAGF
Method: as §1, §4
(§6) The ability of compound 3 to inhibit RANTES-induced migration of human embryonic kidney (HEK) cells transfected to express individual chemokine receptors was initially tested. Although the cosalane analog 3 (1 μM) had no effect on RANTES-induced migration of CCR5 transfectants, it inhibited 50% of RANTES-induced CCR1 transfectant migration (FIG. 2). In contrast, the MIP1α- and MIP1β-induced migration of CCR1 transfectants was not inhibited by compounds 1, 2 or 3 when tested at concentrations of 1 μM (data not shown).

human CCR1 [5] = biological target: T2, human CCR1; assay: RANTES-induced CCR1/HEK-293 transfectant migration
Method: as §1, with “Ficoll.” for “Ficoll. Monocytes were enriched by 85–95% using percoll fractionation (Pharmacia, Piscataway, N.J.).”
as §4, with “magnification.” for “magnification. The results are reported as the average number of cells per high powered field at a given chemokine concentration±standard deviation.”

[6] = tested on: human monocytes (MIP1-β-induced migration); assay: MIP1-β-induced monocyte migration; settings: compound at 1 μM, chemokine at 2.5 ng/ml, data not shown
Method: as §2, with “Chemokines, diluted in binding media, were mixed with cosalane or the indicated cosalane analog and placed in the lower wells of a micro-chemotaxis chamber (Neuro Probe, Cabin John, Md.).” left out
as §3
as §4, with “magnification.” for “magnification. The results are reported as the average number of cells per high powered field at a given chemokine concentration±standard deviation.”
as §5

[7] = tested on: MCP-4/CCR2-mediated monocyte migration; assay: MCP-4-induced human monocyte migration; settings: FIG. 3
Method: as §2, §3, §4
Although MCP-4 is known to bind to CCR2 and CCR3, fresh primary human monocytes only express high levels of CCR2.

[8] = tested on: human monocytes (acetylated RANTES-induced migration); assay: monocyte migration induced by acetylated (modified) RANTES; settings: 10 μM compound; acetylated RANTES 50–1000 ng/mL, FIG. 6
Method: as §2, §3
as §4, with “deviation. […]” for “deviation.”

human CCR1 [9] = biological target: T2, human CCR1; assay: MIP1β-induced migration of CCR1 transfectants; settings: compound at 1 μM, data not shown
Method: as §1, §4, §6

T1 sequence (P51681 whole entry): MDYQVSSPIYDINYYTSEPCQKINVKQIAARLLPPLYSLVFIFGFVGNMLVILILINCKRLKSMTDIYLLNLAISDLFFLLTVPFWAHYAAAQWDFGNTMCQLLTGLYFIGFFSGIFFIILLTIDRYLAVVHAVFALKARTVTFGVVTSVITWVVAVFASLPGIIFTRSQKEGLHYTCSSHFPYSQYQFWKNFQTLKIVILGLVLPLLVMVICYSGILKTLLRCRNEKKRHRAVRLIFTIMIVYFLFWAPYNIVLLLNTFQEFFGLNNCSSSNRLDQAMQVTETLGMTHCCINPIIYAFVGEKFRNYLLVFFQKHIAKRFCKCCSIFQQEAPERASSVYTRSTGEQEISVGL

CC(C)CCCC(C)[C@H]1CCC2C3CCC4C[C@@H](CCC=C(c5cc(Cl)c(OCc6ccccc6C(=O)O)c(C(=O)O)c5)c5cc(Cl)c(OCc6ccccc6C(=O)O)c(C(=O)O)c5)CC[C@]4(C)C3CC[C@@]21C (stereo partly shown) [Compound 3]
IC50 ([1]; Homo sapiens, Monocyte, ≦ 5% standard error, NA = not active): 3.9 µM
inhibition of RANTES-induced monocyte migration ([1]; compound at 1 μM, FIG. 1): effective inhibitor
activity as inhibitors of RANTES-induced migration ([1]; discussion of Table 1): retain activity
inhibition of MIP1-α-induced monocyte migration [2]: neither MiP1-α- nor MIP1-β-induced monocyte migration was inhibited
inhibition of SDF-1α-induced monocyte migration [3]: effective inhibitor
effect on RANTES-induced migration of CCR5 transfectants (human CCR5): no effect
inhibition of MIP1α-induced migration of CCR1 transfectants (human CCR1 [4]): not inhibited
inhibition at 1 µM (human CCR1 [5]; HEK293, compound at 1 μM, FIG. 2): 50%
IC50 (human CCR1 [5]; ≦ 5% standard error, NA = not active, read-out: IC50 (μM) RANTES-Induced CCRI/HEK Migration): 0.26 µM
inhibition of MIP1-β-induced monocyte migration [6]: neither MiP1-α- nor MIP1-β-induced monocyte migration was inhibited
block of MCP-4/CCR2-mediated monocyte migration [7]: block
inhibition of the activity of modified (acetylated) RANTES to attract monocytes [8]: not inhibited
inhibition of MIP1β-induced migration of CCR1 transfectants (human CCR1 [9]): not inhibited

From patent publication US7122533B2, “Cosalane compounds and methods for their use” (The United States of America as represented by the …, priority 1999, dated 2006)
